Assay results reported in US6608086B2, “Dihydropyridines and new uses thereof” (Synaptic Pharmaceutical Corporation, priority 1993, dated 2003).
Read-outs that look alike come from different tables or passages of the source.

How the values were obtained:
[1] = biological target: T1, α1A Human Adrenergic Receptor (Homo sapiens, UniProt P25100); assay: Radioligand binding, [3H]prazosin, cloned human α1A adrenergic receptor
T1 construct: The entire coding region of α1A (1719 bp); expressed in transfected cells
T1 sequence (P25100 1-572): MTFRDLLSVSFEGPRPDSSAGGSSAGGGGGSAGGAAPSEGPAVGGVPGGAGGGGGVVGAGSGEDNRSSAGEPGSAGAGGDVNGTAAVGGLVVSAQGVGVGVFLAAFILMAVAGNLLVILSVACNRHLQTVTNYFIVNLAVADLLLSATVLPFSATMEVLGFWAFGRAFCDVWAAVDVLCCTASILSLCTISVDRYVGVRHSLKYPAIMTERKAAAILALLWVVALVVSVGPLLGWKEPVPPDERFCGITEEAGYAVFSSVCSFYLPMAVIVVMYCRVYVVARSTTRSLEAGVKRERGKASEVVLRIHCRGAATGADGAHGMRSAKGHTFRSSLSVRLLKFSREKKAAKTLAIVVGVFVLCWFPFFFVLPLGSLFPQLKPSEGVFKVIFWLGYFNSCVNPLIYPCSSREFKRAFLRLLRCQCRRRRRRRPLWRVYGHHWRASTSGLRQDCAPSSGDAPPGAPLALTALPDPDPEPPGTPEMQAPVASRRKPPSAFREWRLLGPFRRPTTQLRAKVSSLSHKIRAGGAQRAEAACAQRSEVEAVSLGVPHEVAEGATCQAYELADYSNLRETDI
In short: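 Filter-bound radioactivity measured [3H]prazosin (0.5 nM) binding to membranes of LM(tk−) cells expressing the human α1A receptor after 20 min at 37° C. Phentolamine at 10 μM set nonspecific binding.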

[2] = biological target: T2, α1C Human Adrenergic Receptor (Homo sapiens, UniProt P35348); assay: Radioligand binding, [3H]prazosin, cloned human α1C adrenergic receptor; conditions: cloned human receptor, LM(tk-) cell membranes, mean
T2 construct: The entire coding region of α1C (1401 bp); expressed in transfected cells
T2 sequence (P35348 1-466): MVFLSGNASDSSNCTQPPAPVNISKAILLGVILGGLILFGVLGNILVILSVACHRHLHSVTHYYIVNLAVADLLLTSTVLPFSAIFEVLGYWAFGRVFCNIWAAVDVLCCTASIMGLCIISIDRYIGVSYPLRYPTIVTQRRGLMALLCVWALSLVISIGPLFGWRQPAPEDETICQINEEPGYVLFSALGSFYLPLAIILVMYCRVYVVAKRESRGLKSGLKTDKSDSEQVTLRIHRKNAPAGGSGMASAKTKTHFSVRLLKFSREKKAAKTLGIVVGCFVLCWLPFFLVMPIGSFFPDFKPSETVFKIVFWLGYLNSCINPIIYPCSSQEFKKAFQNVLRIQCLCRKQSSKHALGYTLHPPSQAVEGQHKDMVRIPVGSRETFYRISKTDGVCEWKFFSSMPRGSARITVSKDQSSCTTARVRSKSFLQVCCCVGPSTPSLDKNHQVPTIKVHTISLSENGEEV
In short: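 LM(tk−) membranes (stable human α1C); [3H]prazosin 0.5 nM; 37° C., 20 min; Tris-HCl 50 mM/MgCl2 1 mM/ascorbate 0.1%, pH 7.5; NSB 10 μM phentolamine; GF/B filtration.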

[3] = biological target: T3, α1B Human Adrenergic Receptor (Homo sapiens, UniProt P35368); assay: Radioligand binding, [3H]prazosin, cloned human α1B adrenergic receptor; conditions: cloned human receptor, LM(tk-) cell membranes, mean
T3 construct: The entire coding region of α1B (1563 bp); expressed in transfected cells
T3 sequence (P35368 1-520): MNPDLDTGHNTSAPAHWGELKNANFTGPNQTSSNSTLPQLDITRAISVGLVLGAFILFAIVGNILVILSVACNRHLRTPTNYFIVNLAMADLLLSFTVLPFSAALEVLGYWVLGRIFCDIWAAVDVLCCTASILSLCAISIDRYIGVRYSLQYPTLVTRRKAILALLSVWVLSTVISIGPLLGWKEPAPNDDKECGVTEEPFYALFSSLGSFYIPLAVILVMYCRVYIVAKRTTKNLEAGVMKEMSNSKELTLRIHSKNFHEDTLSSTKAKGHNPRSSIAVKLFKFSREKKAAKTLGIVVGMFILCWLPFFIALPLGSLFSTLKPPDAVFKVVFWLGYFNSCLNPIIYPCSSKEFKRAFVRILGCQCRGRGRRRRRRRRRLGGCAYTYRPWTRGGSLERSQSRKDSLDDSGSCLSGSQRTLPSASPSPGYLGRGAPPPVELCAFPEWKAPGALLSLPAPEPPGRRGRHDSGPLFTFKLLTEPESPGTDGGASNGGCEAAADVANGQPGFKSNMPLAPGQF
In short: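 [3H]prazosin (0.5 nM) binding was run for 20 min at 37° C in pH 7.5 Tris/MgCl2/ascorbate buffer on membranes of LM(tk−) cells stably expressing the cloned receptor. Filtration through GF/B ended the reaction; 10 μM phentolamine gave nonspecific binding.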

[4] = biological target: T4, L-type calcium channel (Rattus norvegicus, UniProt P22002); assay: Competition binding of [3H]nitrendipine to membrane fragments of rat cardiac muscle
T4 construct: membrane fragments of rat cardiac muscle; from tissue; host or cells: rat cardiac muscle membranes
T4 sequence (P22002 whole entry, other chains not shown, the tested form may be a part): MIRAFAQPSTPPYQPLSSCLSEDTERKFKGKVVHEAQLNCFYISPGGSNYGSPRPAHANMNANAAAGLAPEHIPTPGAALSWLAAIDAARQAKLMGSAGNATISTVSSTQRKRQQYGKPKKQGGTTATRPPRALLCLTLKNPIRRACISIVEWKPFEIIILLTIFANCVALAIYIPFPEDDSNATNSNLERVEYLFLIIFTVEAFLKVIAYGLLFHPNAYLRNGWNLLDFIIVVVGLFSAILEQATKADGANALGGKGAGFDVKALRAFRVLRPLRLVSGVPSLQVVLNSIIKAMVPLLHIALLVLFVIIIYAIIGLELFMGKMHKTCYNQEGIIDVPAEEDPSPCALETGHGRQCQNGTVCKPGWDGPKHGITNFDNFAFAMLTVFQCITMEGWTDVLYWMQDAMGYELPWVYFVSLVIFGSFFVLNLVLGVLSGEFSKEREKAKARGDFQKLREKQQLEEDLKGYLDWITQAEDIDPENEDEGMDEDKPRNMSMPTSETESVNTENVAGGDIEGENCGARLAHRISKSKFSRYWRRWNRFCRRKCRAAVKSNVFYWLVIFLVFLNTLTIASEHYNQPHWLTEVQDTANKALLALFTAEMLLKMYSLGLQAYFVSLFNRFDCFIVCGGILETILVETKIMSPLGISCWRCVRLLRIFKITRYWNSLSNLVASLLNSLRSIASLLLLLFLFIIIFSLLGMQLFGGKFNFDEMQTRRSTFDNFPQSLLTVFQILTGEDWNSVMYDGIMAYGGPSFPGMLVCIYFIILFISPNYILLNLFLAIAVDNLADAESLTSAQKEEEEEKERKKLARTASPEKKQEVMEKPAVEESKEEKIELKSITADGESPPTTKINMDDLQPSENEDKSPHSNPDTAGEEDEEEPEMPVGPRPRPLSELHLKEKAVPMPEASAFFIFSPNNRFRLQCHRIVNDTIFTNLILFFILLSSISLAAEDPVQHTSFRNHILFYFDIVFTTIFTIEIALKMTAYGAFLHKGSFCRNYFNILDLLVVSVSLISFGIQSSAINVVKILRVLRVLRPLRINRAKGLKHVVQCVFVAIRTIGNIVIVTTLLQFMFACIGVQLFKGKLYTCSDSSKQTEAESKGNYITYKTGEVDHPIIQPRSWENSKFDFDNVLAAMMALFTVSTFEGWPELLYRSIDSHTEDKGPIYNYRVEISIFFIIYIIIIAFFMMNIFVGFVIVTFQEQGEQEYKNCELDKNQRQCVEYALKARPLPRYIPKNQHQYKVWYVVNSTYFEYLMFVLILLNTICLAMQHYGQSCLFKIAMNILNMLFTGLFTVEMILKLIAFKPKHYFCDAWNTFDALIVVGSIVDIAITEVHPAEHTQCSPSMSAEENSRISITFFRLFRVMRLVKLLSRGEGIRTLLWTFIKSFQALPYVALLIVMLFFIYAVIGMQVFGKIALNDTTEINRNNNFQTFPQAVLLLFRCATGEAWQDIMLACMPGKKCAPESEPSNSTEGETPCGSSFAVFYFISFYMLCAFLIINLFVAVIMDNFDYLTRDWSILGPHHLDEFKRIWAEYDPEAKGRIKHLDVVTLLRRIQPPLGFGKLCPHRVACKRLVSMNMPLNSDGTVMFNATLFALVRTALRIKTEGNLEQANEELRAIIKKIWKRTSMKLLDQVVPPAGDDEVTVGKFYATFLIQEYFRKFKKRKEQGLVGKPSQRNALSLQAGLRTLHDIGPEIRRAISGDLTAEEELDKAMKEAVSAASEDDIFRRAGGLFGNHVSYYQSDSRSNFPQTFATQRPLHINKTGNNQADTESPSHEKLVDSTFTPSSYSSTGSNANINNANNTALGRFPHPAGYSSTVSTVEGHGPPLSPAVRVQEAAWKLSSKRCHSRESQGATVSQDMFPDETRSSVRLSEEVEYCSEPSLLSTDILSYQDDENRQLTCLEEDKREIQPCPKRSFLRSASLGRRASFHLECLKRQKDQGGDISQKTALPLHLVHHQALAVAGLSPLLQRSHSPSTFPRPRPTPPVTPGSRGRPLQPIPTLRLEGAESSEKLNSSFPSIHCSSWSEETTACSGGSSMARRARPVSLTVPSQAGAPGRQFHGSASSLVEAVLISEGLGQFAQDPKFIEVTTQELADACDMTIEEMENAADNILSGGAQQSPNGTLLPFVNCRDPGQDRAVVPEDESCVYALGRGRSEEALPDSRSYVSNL
T4 sequence (P54290 25-944 partner limits assumed, other chains not shown): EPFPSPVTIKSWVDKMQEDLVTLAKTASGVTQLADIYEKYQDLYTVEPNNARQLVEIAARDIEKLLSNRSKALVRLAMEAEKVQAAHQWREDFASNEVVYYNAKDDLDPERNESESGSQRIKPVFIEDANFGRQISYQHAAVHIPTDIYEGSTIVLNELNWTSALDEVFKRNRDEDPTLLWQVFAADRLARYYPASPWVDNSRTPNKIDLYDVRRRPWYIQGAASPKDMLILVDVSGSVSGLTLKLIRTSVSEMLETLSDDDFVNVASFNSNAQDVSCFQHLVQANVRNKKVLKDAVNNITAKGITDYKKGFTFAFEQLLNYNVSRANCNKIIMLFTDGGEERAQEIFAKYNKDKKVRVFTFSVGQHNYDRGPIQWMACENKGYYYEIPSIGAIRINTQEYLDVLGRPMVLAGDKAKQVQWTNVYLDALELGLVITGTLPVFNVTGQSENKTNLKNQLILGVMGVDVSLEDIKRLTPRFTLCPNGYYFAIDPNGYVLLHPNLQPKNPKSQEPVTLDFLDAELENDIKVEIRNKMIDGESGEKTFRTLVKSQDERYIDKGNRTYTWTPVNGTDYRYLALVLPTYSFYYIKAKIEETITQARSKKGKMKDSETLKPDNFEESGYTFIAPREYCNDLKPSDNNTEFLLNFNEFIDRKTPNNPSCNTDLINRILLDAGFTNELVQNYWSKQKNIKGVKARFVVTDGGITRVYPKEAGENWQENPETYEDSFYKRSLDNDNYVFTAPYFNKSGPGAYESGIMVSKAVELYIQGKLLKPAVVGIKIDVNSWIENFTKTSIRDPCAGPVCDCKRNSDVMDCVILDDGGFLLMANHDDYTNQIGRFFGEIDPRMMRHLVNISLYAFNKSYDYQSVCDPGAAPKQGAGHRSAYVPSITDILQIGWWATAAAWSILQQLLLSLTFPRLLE
T4 sequence (P54290 945-1091 partner limits assumed, other chains not shown): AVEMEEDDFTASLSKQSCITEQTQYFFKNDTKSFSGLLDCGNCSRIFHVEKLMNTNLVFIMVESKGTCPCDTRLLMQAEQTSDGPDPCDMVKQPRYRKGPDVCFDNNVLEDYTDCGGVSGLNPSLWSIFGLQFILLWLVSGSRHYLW
Experimental: The protocols for these experiments are given below.
Determination of the Activity of al Antagonists at Calcium Channels
Briefly, the tissue was minced and homogenized in 50 mM Tris-HCl (pH 7.4) containing 0.1 mM phenylmethylsulfonyl fluoride. The homogenates were centrifuged at 1000 g for 15 minutes, the resulting supernatant was centrifuged at 45,000 g for 15 minutes. The 45,000 g pellet was suspended in buffer and centrifuged a second time. Aliquots of membrane protein were incubated for 30 minutes at 37° C. in the presence of [3H]nitrendipine (1 nM), and nonspecific binding was determined in the presence of 10 μM nifedipine. The bound radioligand was separated by filtration through GF/B filters using a cell harvester.

[5] = PKi alpha-1 1a, [3H]prazosin, cloned human receptor, LM(tk-) cell membranes, mean
[6] = [3H]nitrendipine, rat cardiac muscle membranes, mean, read-out: PKi Ca (converted)
[7] = [3H]prazosin, cloned human receptor, LM(tk-) cell membranes, mean, read-out: PKi alpha-1 1a (converted)
[8] = read-out: PKi alpha-1 1c (converted)
[9] = read-out: PKi alpha-1 1b (converted)

Compound	Ki [1, 5]	Ki ([2]; PKi alpha-1 1c)	Ki ([3]; PKi alpha-1 1b)	Ki [4, 6]	melting point	Ki [1, 7]	Ki [2, 8]	Ki [3, 9]	Ki ([1]; PKi alpha-1 1a)	Ki ([4]; PKi Ca)
CCC1=C(C(=O)OCCC#N)C(c2ccc([N+](=O)[O-])cc2)C(C(=O)NCCCN2CCC(C#N)(c3ccccc3)CC2)=C(COC)N1 (stereo not drawn) [Example 220, 5-(2-Cyanoethoxy)carbonyl-3-(N-(3-(4-cyano-4-phenylpiperidin-1-yl)propyl))carboxamido-6-ethyl-1,4-dihydro-2-methyloxymethyl-4-(4-nitro)phenylpyridine]	2140 nM	9.77 nM	525 nM	437 µM	58 to 68 °C	–	–	–	–	–
CCC1=C(C(=O)OCCC#N)C(c2ccc([N+](=O)[O-])cc2)C(C(=O)NCCCN2CCC(c3ccccc3)CC2)=C(COC)N1 (stereo not drawn) [Example 221, 5-(2-Cyanoethoxy) carbonyl-6-ethyl-1,4-dihydro-2-methyloxymethyl-4-(4-nitro)phenyl-3-(N-(3-(4-phenylpiperidin-1-yl)propyl))carboxamidopyridine]	–	–	–	14.1 µM	55 to 63 °C	186 nM	6.17 nM	52.5 nM	–	–
CCC1=C(C(=O)O)C(c2ccc([N+](=O)[O-])cc2)C(C(=O)NCCCN2CCC(C#N)(c3ccccc3)CC2)=C(COC)N1 (stereo not drawn) [Example 222, 3-(N-(3-(4-Cyano-4-phenylpiperidin-1-yl)propyl))carboxamido-6-ethyl-1,4-dihydro-2-methyloxymethyl-4-(4-nitro) phenylpyridine-5-carboxylic Acid]	14100 nM	41.7 nM	6760 nM	282 µM	115 °C (dec.)	–	–	–	–	–
CCC1=C(C(=O)OCCC#N)C(c2ccc([N+](=O)[O-])cc2)C(C(=O)NCCCN2CCC(C(=O)OC)(c3ccccc3)CC2)=C(COCCN=[N+]=[N-])N1 (stereo not drawn) [Example 226, 2-((2-Azidoethyl)oxy) methyl-5-(2-cyanoethoxy) carbonyl-6-ethyl-1,4-dihydro-3-(N-(3-(4-methoxycarbonyl-4-phenylpiperidin-1-yl)propyl))carboxamido-4-(4-nitro)phenylpyridine]	–	–	–	8.71 µM	54 to 60 °C	224 nM	11 nM	97.7 nM	–	–
CCC1=C(C(=O)O)C(c2ccc([N+](=O)[O-])cc2)C(C(=O)NCCCN2CCC(C(=O)OC)(c3ccccc3)CC2)=C(COCCN=[N+]=[N-])N1 (stereo not drawn) [Example 227, 2-((2-Azidoethyl)oxy)methyl-6-ethyl-1,4-dihydro-3-(N-(3-(4-methoxycarbonyl-4-phenylpiperidin-1-yl)propyl))carbo xamido-4-(4-nitro)phenylpyridine-5-carboxylic Acid]	–	–	–	70.8 µM	110 to 120 °C	5130 nM	23.4 nM	2630 nM	–	–
CCC1=C(C(=O)NC)C(c2ccc([N+](=O)[O-])cc2)C(C(=O)NCCCN2CCC(C(=O)OC)(c3ccccc3)CC2)=C(COCCN=[N+]=[N-])N1 (stereo not drawn) [Example 228, 2-((2-Azidoethyl)oxy)methyl-6-ethyl-1,4-dihydro-3-(N-(3-(4-methoxycarbonyl-4-phenylpiperidin-1-yl)propyl))carbo xamido-5-N-methylcarboxamido-4-(4-nitro)phenylpyridine]	–	–	–	33.9 µM	73 to 83 °C	3470 nM	16.6 nM	1480 nM	–	–
CCNC(=O)C1=C(CC)NC(COCCN=[N+]=[N-])=C(C(=O)NCCCN2CCC(C(=O)OC)(c3ccccc3)CC2)C1c1ccc([N+](=O)[O-])cc1 (stereo not drawn) [Example 230, 2-((2-Azidoethyl)oxy)methyl-6-ethyl-5-N-ethylcarboxamido-1,4-dihydro-3-(N-(3-(4-methoxycarbonyl-4-phenylpiperidin-1-yl)propyl))carboxamido-4-(4-nitro)phenylpyridine]	–	–	–	9.12 µM	70 °C (dec.)	1780 nM	8.71 nM	692 nM	–	–
CCC1=C(C(N)=O)C(c2ccc([N+](=O)[O-])cc2)C(C(=O)NCCCN2CCC(C(=O)OC)(c3ccccc3)CC2)=C(COCCN=[N+]=[N-])N1 (stereo not drawn) [Example 231, 2-((2-Azidoethyl)oxy)methyl-5-carboxamido-6-ethyl-1,4-dihydro-3-(N-(3-(4-methoxycarbonyl-4-phenylpiperidin-1-yl)propyl))carboxamido-4-(4-nitro)phenylpyridine]	–	–	–	389 µM	70 to 75 °C	1230 nM	4.37 nM	501 nM	–	–
CCC1=C(C(=O)OC)C(c2ccc([N+](=O)[O-])cc2)C(C(=O)NCCCN2CCC(C(=O)OC)(c3ccccc3)CC2)=C(COCCN=[N+]=[N-])N1 (stereo not drawn) [Example 232, 2-((2-Azidoethyl)oxy)methyl-6-ethyl-5-methoxycarbonyl-3-(N-(3 (4-methoxycarbonyl-4-phenylpiperidin-1-yl)propyl))carbo xamido-1,4-dihydro-4-(4-nitro)phenylpyridine]	–	–	–	–	50 to 60 °C	–	7.59 nM	219 nM	417 nM	0.692 µM
